Experiments:
Test in all cases: Bliss excess, mean over the matrix (fraction); higher = more synergy
[1] = tested on: RO82-W-1 (Thyroid Gland Carcinoma)
How it was run: (§1)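 Cell lines in DMEM/F12 or RPMI with 10% FBS were plated in 1536-well plates, held 24 hours at 37°C, 5% CO2, then given two-drug dose matrices for 72 hours (DMSO typically 0.2%). Viability was read by CellTiter-Glo 2.0 luminescence and scaled as inhibition from 0 (vehicle wells) to 1 (blank wells). Combination Emax is the second-highest inhibition in the matrix; Bliss excess is observed combination effect minus expected EA + EB − EA·EB, EA and EB being single-agent effects.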

[2] = tested on: HCC-78 (Lung Adenocarcinoma)
How it was run: as §1

[3] = tested on: HO-1-N-1 (Oral Cavity Carcinoma)
How it was run: as §1

[4] = tested on: T98G (Glioblastoma)
How it was run: as §1

[5] = tested on: NCI-H2085 (Non-Small Cell Lung Carcinoma)
How it was run: as §1

[6] = tested on: Hs-578-T (Breast Carcinoma)
How it was run: as §1

[7] = tested on: KELLY (Neuroblastoma)
How it was run: as §1

[8] = tested on: TE-9 (Esophageal Squamous Cell Carcinoma)
How it was run: as §1

[9] = tested on: Ramos-2G6-4C10 (Burkitt's Lymphoma)
How it was run: as §1

[10] = tested on: CAL-148 (Breast Carcinoma)
How it was run: as §1

[11] = tested on: KURAMOCHI (Ovarian Carcinoma)
How it was run: as §1

[12] = tested on: UM-UC-3 (Bladder Carcinoma)
How it was run: as §1

[13] = tested on: LS-180 (Colorectal Carcinoma)
How it was run: as §1

[14] = tested on: CaR-1 (Colorectal Carcinoma)
How it was run: as §1

[15] = tested on: ME-1 (Acute Myeloid Leukemia)
How it was run: as §1

[16] = tested on: HOS (Osteosarcoma)
How it was run: as §1

[17] = tested on: DoTc2-4510 (Cervical Carcinoma)
How it was run: as §1

[18] = tested on: Calu-3 (Lung Adenocarcinoma)
How it was run: as §1

[19] = tested on: NB10 (Neuroblastoma)
How it was run: as §1

[20] = tested on: HT-1376 (Bladder Carcinoma)
How it was run: as §1

SMILES	Bliss excess [1]	Bliss excess [2]	Bliss excess [3]	Bliss excess [4]	Bliss excess [5]	Bliss excess [6]	Bliss excess [7]	Bliss excess [8]	Bliss excess [9]	Bliss excess [10]	Bliss excess [11]	Bliss excess [12]	Bliss excess [13]	Bliss excess [14]	Bliss excess [15]	Bliss excess [16]	Bliss excess [17]	Bliss excess [18]	Bliss excess [19]	Bliss excess [20]
Cc1cc2ncnn2cc1Nc1ncc2c(n1)n(C1CCOCC1)c(=O)n2C [AZD7648] + COc1cc([C@@H]2c3cc4c(cc3[C@@H](O[C@@H]3O[C@@H]5CO[C@@H](C)O[C@H]5[C@H](O)[C@H]3O)[C@H]3COC(=O)[C@H]23)OCO4)cc(OC)c1O [Etoposide] (first compound max 10 µM, 7x7, partner max 10 µM)	0.0049	0.0695	0.23	0.12	0.0734	0.0777	0.0734	0.0158	0.0563	0.163	0.0716	0.105	0.0183	0.0253	-0.0301	0.0772	0.116	0.1	0.0154	-0.0021
O=C(c1cc(Cc2n[nH]c(=O)c3ccccc23)ccc1F)N1CCN(C(=O)C2CC2)CC1 [Olaparib] + CC1(C)CCC(CN2CCN(c3ccc(C(=O)NS(=O)(=O)c4ccc(NCC5CCOCC5)c([N+](=O)[O-])c4)c(Oc4cnc5[nH]ccc5c4)c3)CC2)=C(c2ccc(Cl)cc2)C1 [Venetoclax] (first compound max 10 µM, 7x7, partner max 1 µM)	-0.0277	-0.0181	0.048	-0.0269	-0.0608	-0.115	0.0744	-0.045	-0.0167	-0.0581	-0.0482	-0.0528	-0.0431	-0.0509	0.0436	-0.0626	-0.0462	-0.0406	-0.0041	-0.0522
Cc1c2c(nn1C)CSCc1cc(n(C)n1)CSc1cc(c3ccccc3c1)OCCCc1c(C(=O)O)n(C)c3c-2c(Cl)ccc13 [AZD5991] + Nc1ccn([C@@H]2O[C@H](CO)[C@@H](O)C2(F)F)c(=O)n1 [Gemcitabine] (first compound max 1 µM, 7x7, partner max 0.3 µM)	-0.0453	-0.0102	-0.0071	0.0127	-0.021	0.0298	-0.0253	-0.0201	0.0162	0.122	0.0117	-0.0402	-0.061	-0.0383	-0.0612	0.0054	-0.0282	-0.0191	-0.0006	-0.03
C[C@@H](Nc1cc(F)cc(F)c1)c1cc(C(=O)N(C)C)cc2c(=O)cc(N3CCOCC3)oc12 [AZD8186] + CC(=O)c1c(C)c2cnc(Nc3ccc(N4CCNCC4)cn3)nc2n(C2CCCC2)c1=O [Palbociclib] (first compound max 10 µM, 7x7, partner max 10 µM)	0.033	0.0329	0.0805	0.0744	0.0565	-0.0091	0.0897	-0.0589	-0.0328	0.033	-0.0358	0.131	0.0004	-0.0054	0.0065	-0.0227	-0.0639	-0.0036	0.0425	-0.037
N#Cc1cnc(Nc2cc(NC[C@H]3CNCCO3)c(C(F)(F)F)cn2)cn1 [SRA737] + C=CCn1c(=O)c2cnc(Nc3ccc(N4CCN(C)CC4)cc3)nc2n1-c1cccc(C(C)(C)O)n1 [AZD1775] (first compound max 10 µM, partner max 1 µM)	-0.0441	0.0611	0.0976	0.0169		0.0771	0.0387	0.0457	0.119	0.184	-0.0194	0.0749	0.0475	-0.0239	0.0456	0.06	0.074	0.0228	0.105	0.0357
N#Cc1cnc(Nc2cc(NC[C@H]3CNCCO3)c(C(F)(F)F)cn2)cn1 [SRA737] + CCc1c2c(nc3ccc(O)cc13)-c1cc3c(c(=O)n1C2)COC(=O)[C@]3(O)CC [SN-38] (first compound max 10 µM, 7x7, partner max 0.3 µM)	-0.04	-0.0447	-0.0022	0.0065	-0.0053	0.114	-0.0429	-0.0181	0.135	-0.0602	-0.0093	-0.0017		-0.0711	0.0352	0.0136	0.0093	-0.0477	-0.141	0.0047

— the supplement of paper PMC11061612
